The target in assay [1] is T1, hSCN3A (Homo sapiens, UniProt Q9NY46).
T1 construct: expressed in transfected cells
Description: Whole-cell patch-clamp electrophysiology (conventional or PatchXpress), HEK cells expressing hSCN3A, estimated IC-50. Conditions: Table V; estimated IC-50 from single point electrophysiology, cells clamped at V1/2; read-out: SCN3A EIC-50. Type of assay: cell-based. On the procedure: Human Embryonic Kidney (HEK) cells were transfected with hSCN3A or hSCN9A constructs using lipofectamine reagent (Invitrogen), using standard techniques. Cells stably expressing the hSCN3A or hSCN9A constructs were identified by their resistance to G-418 (400 μg/ml). Clones were screened for expression using the whole-cell voltage-clamp technique. HEK cells stably transfected with hSCN3A or hSCN9A were maintained in DMEM medium supplemented with 10% heat-inactivated fetal bovine serum and 400 μg/ml G418 sulfate in an incubator at 37° C. with a humidified atmosphere of 10% CO2. For HTS, cells were harvested from flasks by trypsinization and replated in an appropriate multi-well plate (typically 96 or 384 wells/plate) such that confluence would be achieved within 24 hours of plating. For electrophysiological studies, cells were removed from the culture flask by brief trypsinization and replated at low density onto glass cover slips. Cells were typically used for electrophysiological experiments within 24 to 72 h after plating. Cover slips containing HEK cells expressing hSCN3A or hSCN9A were placed in a bath on the stage of an inverted microscope and perfused (approximately 1 ml/min) with extracellular solution of the following composition: 138 mM NaCl, 2 mM CaCl2, 5.4 mM KCl, 1 mM MgCl2, 10 mM glucose, and 10 mM HEPES, pH 7.4, with NaOH. […] All recordings were made at room temperature (22-24° C.) using AXOPATCH 200B amplifiers and PCLAMP software (Axon Instruments, Burlingame, Calif.) or PatchXpress 7000 hardware and associated software (Axon Instruments, Burlingame, Calif.). hSCN3A or hSCN9A currents in HEK cells were measured using the whole-cell configuration of the patch-clamp technique (Hamill et al., 1981). […] As a result, voltage errors were negligible and no correction was applied. Current records were acquired at 20 to 50 KHz and filtered at 5 to 10 KHz. HEK cells stably transfected with hSCN3A or hSCN9A were viewed under Hoffman contrast optics and placed in front of an array of flow pipes emitting either control or compound-containing extracellular solutions. All compounds were dissolved in dimethyl sulfoxide to make 10 mM stock solutions, which were then diluted into extracellular solution to attain the final concentrations desired. […] The voltage-dependence of inactivation was determined by applying a series of depolarizing prepulses (8 sec long in 10 mV increments) from a negative holding potential. The voltage was then immediately stepped to 0 mV to assess the magnitude of the sodium current. Currents elicited at 0 mV were plotted as a function of prepulse potential to allow estimation of the voltage midpoint of inactivation (V1/2). Cells were then voltage clamped at the empirically determined V1/2. Compounds were tested for their ability to inhibit hSCN3A or hSCN9A sodium channels by activating the channel with a 20 msec voltage step to 0 mV following an 8 second conditioning prepulse to the empirically determined V1-2 (Table B). Compound effect (% inhibition) was determined by difference in current amplitude before and after application of test compounds. […] In some cases electrophysiological assays were conducted with PatchXpress 7000 hardware and associated software (Molecular Devices Corp) (Table B). All assay buffers and solutions were identical to those used in conventional whole-cell voltage clamp experiments described above. hSCN3A or hSCN9A containing cells were grown as above to 50%-80% confluency and harvested by trypsinization. Trypsinized cells were washed and resuspended in extracellular buffer at a concentration of 1×10^6 cells/ml. The onboard liquid handling facility of the PatchXpress was used for dispensing cells and application of test compounds. Determination of the voltage midpoint of inactivation was as described for conventional whole-cell recordings. Cells were then voltage-clamped to the empirically determined V1/2 and current was activated by a 20 msec voltage step to 0 mV.

The target of assay [2] is T2, hSCN9A (Homo sapiens, UniProt Q15858).
T2 construct: expressed in transfected cells
The assay can be described thus: Whole-cell patch-clamp electrophysiology (conventional or PatchXpress), HEK cells expressing hSCN9A, estimated IC-50. Type of assay: cell-based. Conditions: Table V; estimated IC-50 from single point electrophysiology, cells clamped at V1/2; read-out: SCN9A EIC-50. The procedure, abridged: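 Current through each channel was evoked by a 20 ms step to 0 mV following an 8 s conditioning prepulse at the cell's own half-inactivation voltage. Recordings used HEK lines stably expressing the channel, conventional or PatchXpress patch clamp, room temperature, pH 7.4 bath; inhibition taken as pre/post-compound amplitude change.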

Structures are written as SMILES.

T1 sequence (Q9NY46 whole entry): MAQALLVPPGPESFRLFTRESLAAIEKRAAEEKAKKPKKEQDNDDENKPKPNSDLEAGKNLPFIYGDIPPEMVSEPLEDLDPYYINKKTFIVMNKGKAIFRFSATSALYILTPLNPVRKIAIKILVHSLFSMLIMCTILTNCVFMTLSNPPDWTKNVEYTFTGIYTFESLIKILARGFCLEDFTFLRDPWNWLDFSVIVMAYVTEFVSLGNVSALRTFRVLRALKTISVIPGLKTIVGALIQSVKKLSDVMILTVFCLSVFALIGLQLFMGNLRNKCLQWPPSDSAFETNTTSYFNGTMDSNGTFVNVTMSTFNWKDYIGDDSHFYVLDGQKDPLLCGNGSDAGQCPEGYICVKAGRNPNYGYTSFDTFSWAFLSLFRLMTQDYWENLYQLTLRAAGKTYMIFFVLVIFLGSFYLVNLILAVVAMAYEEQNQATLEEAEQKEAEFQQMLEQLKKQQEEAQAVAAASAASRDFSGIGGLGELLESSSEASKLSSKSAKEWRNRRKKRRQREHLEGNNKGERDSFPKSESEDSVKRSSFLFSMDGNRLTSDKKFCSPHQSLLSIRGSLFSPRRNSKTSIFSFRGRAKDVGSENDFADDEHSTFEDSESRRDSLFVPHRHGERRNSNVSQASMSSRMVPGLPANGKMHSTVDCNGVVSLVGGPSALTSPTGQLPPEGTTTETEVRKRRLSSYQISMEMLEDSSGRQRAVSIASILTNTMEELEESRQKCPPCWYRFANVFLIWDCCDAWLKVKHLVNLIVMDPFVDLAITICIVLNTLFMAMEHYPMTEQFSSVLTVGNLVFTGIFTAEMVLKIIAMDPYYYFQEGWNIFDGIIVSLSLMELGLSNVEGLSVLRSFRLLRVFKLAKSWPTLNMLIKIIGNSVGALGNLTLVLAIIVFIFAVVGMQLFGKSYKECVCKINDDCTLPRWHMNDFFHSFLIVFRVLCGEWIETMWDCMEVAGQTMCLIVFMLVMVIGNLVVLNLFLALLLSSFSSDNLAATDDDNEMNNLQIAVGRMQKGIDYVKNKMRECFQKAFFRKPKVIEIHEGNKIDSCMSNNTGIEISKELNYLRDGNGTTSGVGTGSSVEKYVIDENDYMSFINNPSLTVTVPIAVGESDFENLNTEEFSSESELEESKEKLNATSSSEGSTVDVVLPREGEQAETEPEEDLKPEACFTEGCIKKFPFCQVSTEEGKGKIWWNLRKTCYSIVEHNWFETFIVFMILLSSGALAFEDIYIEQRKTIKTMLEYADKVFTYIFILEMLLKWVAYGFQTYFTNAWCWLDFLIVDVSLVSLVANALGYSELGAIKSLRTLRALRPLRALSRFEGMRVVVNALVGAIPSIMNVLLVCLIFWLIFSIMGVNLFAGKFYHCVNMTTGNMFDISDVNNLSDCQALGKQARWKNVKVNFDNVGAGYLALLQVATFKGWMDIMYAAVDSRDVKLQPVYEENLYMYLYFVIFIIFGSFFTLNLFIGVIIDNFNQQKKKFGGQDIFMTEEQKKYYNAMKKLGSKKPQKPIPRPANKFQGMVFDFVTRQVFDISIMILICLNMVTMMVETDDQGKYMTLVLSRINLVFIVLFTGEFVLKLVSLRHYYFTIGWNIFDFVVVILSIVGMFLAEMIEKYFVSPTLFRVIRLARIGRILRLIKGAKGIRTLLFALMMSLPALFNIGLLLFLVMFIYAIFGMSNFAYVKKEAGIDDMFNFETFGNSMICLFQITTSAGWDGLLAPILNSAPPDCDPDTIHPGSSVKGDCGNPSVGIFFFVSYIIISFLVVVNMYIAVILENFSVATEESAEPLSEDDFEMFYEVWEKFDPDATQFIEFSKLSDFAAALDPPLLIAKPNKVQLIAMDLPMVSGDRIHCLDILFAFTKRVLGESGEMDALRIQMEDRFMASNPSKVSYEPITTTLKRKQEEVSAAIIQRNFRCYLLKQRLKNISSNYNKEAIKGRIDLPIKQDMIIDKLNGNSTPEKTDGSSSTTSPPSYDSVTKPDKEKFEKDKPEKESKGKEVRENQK
T2 sequence (Q15858 whole entry): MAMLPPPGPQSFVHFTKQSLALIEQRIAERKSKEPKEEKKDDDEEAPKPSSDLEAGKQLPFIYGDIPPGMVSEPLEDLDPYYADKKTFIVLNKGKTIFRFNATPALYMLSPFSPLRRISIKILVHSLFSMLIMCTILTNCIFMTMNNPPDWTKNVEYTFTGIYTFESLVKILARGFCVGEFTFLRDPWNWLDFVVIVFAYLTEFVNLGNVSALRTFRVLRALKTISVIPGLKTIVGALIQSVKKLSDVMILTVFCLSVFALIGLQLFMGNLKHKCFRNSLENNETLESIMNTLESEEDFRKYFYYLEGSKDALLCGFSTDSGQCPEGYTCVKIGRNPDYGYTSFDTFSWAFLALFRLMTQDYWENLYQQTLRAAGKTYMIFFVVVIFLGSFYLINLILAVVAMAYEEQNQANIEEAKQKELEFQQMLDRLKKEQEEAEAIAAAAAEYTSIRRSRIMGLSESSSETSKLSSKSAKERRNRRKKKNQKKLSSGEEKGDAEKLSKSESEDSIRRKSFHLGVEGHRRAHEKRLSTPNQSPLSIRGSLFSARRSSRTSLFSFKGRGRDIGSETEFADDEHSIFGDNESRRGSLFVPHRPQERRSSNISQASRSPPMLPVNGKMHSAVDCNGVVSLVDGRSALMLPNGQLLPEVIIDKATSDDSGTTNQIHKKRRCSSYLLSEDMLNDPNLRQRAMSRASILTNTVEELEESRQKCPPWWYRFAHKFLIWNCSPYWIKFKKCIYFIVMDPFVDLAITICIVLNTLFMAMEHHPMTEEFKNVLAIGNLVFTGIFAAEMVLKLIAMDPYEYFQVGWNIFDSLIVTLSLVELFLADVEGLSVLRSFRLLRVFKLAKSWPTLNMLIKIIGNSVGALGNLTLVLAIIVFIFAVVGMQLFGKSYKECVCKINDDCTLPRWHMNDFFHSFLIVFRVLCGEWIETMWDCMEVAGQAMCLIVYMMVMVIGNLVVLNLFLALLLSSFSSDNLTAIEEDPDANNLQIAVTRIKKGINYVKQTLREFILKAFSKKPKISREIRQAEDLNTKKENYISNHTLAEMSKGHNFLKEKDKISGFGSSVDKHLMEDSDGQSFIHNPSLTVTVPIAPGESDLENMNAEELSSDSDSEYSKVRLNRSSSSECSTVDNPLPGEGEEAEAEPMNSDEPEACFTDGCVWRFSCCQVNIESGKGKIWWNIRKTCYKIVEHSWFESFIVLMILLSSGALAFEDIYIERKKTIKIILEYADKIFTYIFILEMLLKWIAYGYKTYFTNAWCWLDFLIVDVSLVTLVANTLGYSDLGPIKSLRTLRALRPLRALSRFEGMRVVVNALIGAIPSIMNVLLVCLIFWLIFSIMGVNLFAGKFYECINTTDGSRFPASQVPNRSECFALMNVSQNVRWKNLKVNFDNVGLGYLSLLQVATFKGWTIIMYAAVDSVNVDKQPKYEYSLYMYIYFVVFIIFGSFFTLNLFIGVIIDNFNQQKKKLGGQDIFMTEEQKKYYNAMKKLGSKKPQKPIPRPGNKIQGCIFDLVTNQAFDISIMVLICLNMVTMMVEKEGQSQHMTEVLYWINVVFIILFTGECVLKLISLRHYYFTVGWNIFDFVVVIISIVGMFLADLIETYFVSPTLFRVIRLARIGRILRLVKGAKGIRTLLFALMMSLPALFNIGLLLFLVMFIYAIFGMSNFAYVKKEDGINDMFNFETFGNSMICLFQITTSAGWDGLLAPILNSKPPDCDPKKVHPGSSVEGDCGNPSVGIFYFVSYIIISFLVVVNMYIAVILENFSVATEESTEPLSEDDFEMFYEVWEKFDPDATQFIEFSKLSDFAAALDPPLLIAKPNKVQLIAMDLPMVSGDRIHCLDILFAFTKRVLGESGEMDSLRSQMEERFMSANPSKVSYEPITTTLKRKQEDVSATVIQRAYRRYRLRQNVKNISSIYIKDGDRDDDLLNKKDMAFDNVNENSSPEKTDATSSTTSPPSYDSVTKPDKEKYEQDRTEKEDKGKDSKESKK

As to `CC(C)(C)c1csc(Nc2ccc(S(=O)(=O)Nc3nccs3)cc2)n1` [Compound 14, 4-(4-Tert-butyl-thiazol-2-ylamino)-N-thiazol-2-yl-benzenesulfonamide], the results for the IC50 in assay [1] and in assay [2] were below 2 µM and 2 to 10 µM, respectively.
The like results for `CC(C)(C)n1nc(Cc2ccc(Cl)cc2)cc1Nc1ccc(S(=O)(=O)Nc2nccs2)cc1` [Compound 15, 4-(1-tert-butyl-3-(4-chlorobenzyl)-1H-pyrazol-5-ylamino)-N-(thiazol-2-yl)benzenesulfonamide] were, in that order, below 2 µM and below 2 µM.
For `O=S(=O)(Nc1nccs1)c1ccc(Nc2cc(Cc3ccc(Cl)cc3)n[nH]2)cc1` [Compound 16, 4-(3-(4-Chlorobenzyl)-1H-pyrazol-5-ylamino)-N-(thiazol-2-yl)benzenesulfonamide] the same measures were below 2 µM and below 2 µM.
The like results for `Cn1nc(C(C)(C)C)cc1Nc1ccc(S(=O)(=O)Nc2nccs2)cc1` [Compound 17, 4-(3-Tert-butyl-1-methyl-1H-pyrazol-5-ylamino)-N-(thiazol-2-yl)benzenesulfonamide] were, in that order, below 2 µM and 2 to 10 µM.
Take `CC(C)(C)c1cc(Nc2ccc(S(=O)(=O)Nc3nccs3)cc2)no1` [Compound 18]: the IC50 in assay [1] was below 2 µM; in assay [2], above 10 µM.
For `CC(C)(C)n1nc(Nc2ccc(S(=O)(=O)Nc3nccs3)cc2)nc1N` [Compound 19, 4-(5-Amino-1-tert-butyl-1H-1,2,4-triazol-3-ylamino)-N-(thiazol-2-yl)benzenesulfonamide] the same measures were below 2 µM and above 10 µM.
The like results for `Cc1cc(Nc2ccc(S(=O)(=O)Nc3nccs3)cc2)n(-c2ccccc2)n1` [Compound 20, 4-(3-methyl-1-phenyl-1H-pyrazol-5-ylamino)-N-(thiazol-2-yl)benzenesulfonamide] were, in that order, below 2 µM and 2 to 10 µM.
The like results for `Cn1nc(Cc2ccc(Cl)cc2)cc1Nc1ccc(S(=O)(=O)Nc2nccs2)cc1` [Compound 21, 4-(3-(4-Chlorobenzyl)-1-methyl-1H-pyrazol-5-ylamino)-N-(thiazol-2-yl)benzenesulfonamide] were, in that order, below 2 µM and below 2 µM.
As to `CC(C)(C)c1cc(Nc2ccc(S(=O)(=O)Nc3nccs3)cc2)n(C(C)(C)C)n1` [Compound 22, 4-(1,3-di-tert-butyl-1H-pyrazol-5-ylamino)-N-(thiazol-2-yl)benzenesulfonamide], the IC50 in assay [1] and in assay [2] was 2 to 10 µM in each case.
Regarding `CC(C)(C)c1cc(Nc2ccc(S(=O)(=O)Nc3nccs3)cc2)[nH]n1` [Compound 23, 4-(3-tert-butyl-1H-pyrazol-5-ylamino)-N-(thiazol-2-yl)benzenesulfonamide], the IC50 in assay [1] and in assay [2] was 2 to 10 µM throughout.
Turning to `Nc1nc(Nc2ccc(S(=O)(=O)Nc3nccs3)cc2)nn1Cc1ccc(Cl)cc1` [Compound 24, 4-(5-amino-1-(4-chlorobenzyl)-1H-1,2,4-triazol-3-ylamino)-N-(thiazol-2-yl)benzenesulfonamide], the IC50 in assay [1] was 2 to 10 µM; in assay [2], above 10 µM.
Regarding `N#Cc1cnn(-c2ccc(F)c(Cl)c2)c1Nc1ccc(S(=O)(=O)Nc2nccs2)cc1` [Compound 25, 4-(1-(3-chloro-4-fluorophenyl)-4-cyano-1H-pyrazol-5-ylamino)-N-(thiazol-2-yl)benzenesulfonamide], the IC50 in assay [1] was below 2 µM; in assay [2], above 10 µM.
For `CC(C)(C)n1nc(Cc2ccc(Cl)cc2)cc1Nc1ccc(S(=O)(=O)Nc2nccs2)c(F)c1` [Compound 26, 4-(1-tert-butyl-3-(4-chlorobenzyl)-1H-pyrazol-5-ylamino)-2-fluoro-N-(thiazol-2-yl)benzenesulfonamide] the same measures were below 2 µM and below 2 µM.
On to `O=S(=O)(Nc1nccs1)c1ccc(Nc2nnc(Cc3ccc(C(F)(F)F)cc3)s2)cc1` [Compound 27, N-(thiazol-2-yl)-4-(5-(4-(trifluoromethyl)benzyl)-1,3,4-thiadiazol-2-ylamino)benzenesulfonamide], for which the IC50 is below 2 µM in assay [1] and above 10 µM in assay [2].
For `O=S(=O)(Nc1nccs1)c1ccc(Nc2nnc(Cc3ccc(C(F)(F)F)cc3)o2)cc1` [Compound 28, N-(thiazol-2-yl)-4-(5-(4-(trifluoromethyl)benzyl)-1,3,4-oxadiazol-2-ylamino)benzenesulfonamide] the same measures were below 2 µM and above 10 µM.
As to `Cn1nc(CC2CCCCC2)cc1Nc1ccc(S(=O)(=O)Nc2nccs2)cc1` [Compound 29, 4-(3-(cyclohexylmethyl)-1-methyl-1H-pyrazol-5-ylamino)-N-(thiazol-2-yl)benzenesulfonamide], the IC50 in assay [1] and in assay [2] was below 2 µM in each case.
`Cc1cc(Nc2ccc(S(=O)(=O)Nc3nccs3)c(F)c2)n(-c2ccccc2)n1` [Compound 30, 2-fluoro-4-(3-methyl-1-phenyl-1H-pyrazol-5-ylamino)-N-(thiazol-2-yl)benzenesulfonamide]: the IC50 in assay [1] and in assay [2] was below 2 µM throughout.
Regarding `O=S(=O)(Nc1nccs1)c1ccc(Nc2ccn(Cc3ccc(Cl)cc3)n2)cc1F` [Compound 31, 4-(1-(4-chlorobenzyl)-1H-pyrazol-3-ylamino)-2-fluoro-N-(thiazol-2-yl)benzenesulfonamide], the IC50 in assay [1] and in assay [2] was below 2 µM each time.
As for `O=S(=O)(Nc1nccs1)c1ccc(Nc2cc(C3CC3)nn2-c2ccccc2)cc1F` [Compound 32, 4-(3-cyclopropyl-1-phenyl-1H-pyrazol-5-ylamino)-2-fluoro-N-(thiazol-2-yl)benzenesulfonamide], the IC50 in assay [1] and in assay [2] was below 2 µM in each case.
On to `O=S(=O)(Nc1nccs1)c1ccc(Nc2cnn(Cc3ccc(Cl)cc3)c2)cc1F` [Compound 33, 4-(1-(4-chlorobenzyl)-1H-pyrazol-4-ylamino)-2-fluoro-N-(thiazol-2-yl)benzenesulfonamide], for which the IC50 in assay [1] and in assay [2] was below 2 µM in each case.
With `Cn1nc(CC(C)(C)C)cc1Nc1ccc(S(=O)(=O)Nc2nccs2)c(F)c1` [Compound 34, 2-fluoro-4-(1-methyl-3-neopentyl-1H-pyrazol-5-ylamino)-N-(thiazol-2-yl)benzenesulfonamide], the IC50 in assay [1] and in assay [2] was below 2 µM throughout.
As to `Cc1cc(Nc2ccc(S(=O)(=O)Nc3nccs3)cc2F)n(-c2ccccc2)n1` [Compound 35, 3-fluoro-4-(3-methyl-1-phenyl-1H-pyrazol-5-ylamino)-N-(thiazol-2-yl)benzenesulfonamide], the IC50 in assay [1] and in assay [2] was below 2 µM throughout.
Take `O=S(=O)(Nc1nccs1)c1ccc(Nc2cc(C3CC3)nn2-c2ccccc2)c(F)c1` [Compound 36, 4-(3-cyclopropyl-1-phenyl-1H-pyrazol-5-ylamino)-3-fluoro-N-(thiazol-2-yl)benzenesulfonamide]: the IC50 in assay [1] and in assay [2] was below 2 µM in each case.
On to `O=S(=O)(Nc1nccs1)c1ccc(Nc2ccccc2-c2ccccc2)cc1F` [Compound 37, 4-(Biphenyl-2-ylamino)-2-fluoro-N-thiazol-2-yl-benzenesulfonamide], for which the IC50 in assay [1] and in assay [2] was below 2 µM each time.

These data come from US8124610B2, “Sodium channel inhibitors” (Icagen Inc., priority 2007, dated 2012).
